One test deals with NCI-H1975. As to the kind of experiment: Antiproliferative activity against human H1975 cells assessed as cell viability after 72 hrs by MTT assay. Type of test: functional, cell-based. The settings on record: NCI-H1975, 72 h. On the technique in general: Tetrazolium dyes change colour on reduction, which living cells bring about.
The target of test [1] is Hepatocyte growth factor receptor (Homo sapiens, UniProt P08581). In words: Inhibition of c-Met (unknown origin) by mobility shift assay.
The next test has as its system A549. In words: Antiproliferative activity against human A549 cells assessed as cell viability after 72 hrs by MTT assay. Type of test: functional, cell-based. Conditions: A549, 72 h.
Test [2] deals with Epidermal growth factor receptor (Homo sapiens, UniProt P00533). In words: Inhibition of wild type EGFR (unknown origin) by mobility shift assay.
Epidermal growth factor receptor (Homo sapiens, UniProt P00533), sequence (P00533 whole entry): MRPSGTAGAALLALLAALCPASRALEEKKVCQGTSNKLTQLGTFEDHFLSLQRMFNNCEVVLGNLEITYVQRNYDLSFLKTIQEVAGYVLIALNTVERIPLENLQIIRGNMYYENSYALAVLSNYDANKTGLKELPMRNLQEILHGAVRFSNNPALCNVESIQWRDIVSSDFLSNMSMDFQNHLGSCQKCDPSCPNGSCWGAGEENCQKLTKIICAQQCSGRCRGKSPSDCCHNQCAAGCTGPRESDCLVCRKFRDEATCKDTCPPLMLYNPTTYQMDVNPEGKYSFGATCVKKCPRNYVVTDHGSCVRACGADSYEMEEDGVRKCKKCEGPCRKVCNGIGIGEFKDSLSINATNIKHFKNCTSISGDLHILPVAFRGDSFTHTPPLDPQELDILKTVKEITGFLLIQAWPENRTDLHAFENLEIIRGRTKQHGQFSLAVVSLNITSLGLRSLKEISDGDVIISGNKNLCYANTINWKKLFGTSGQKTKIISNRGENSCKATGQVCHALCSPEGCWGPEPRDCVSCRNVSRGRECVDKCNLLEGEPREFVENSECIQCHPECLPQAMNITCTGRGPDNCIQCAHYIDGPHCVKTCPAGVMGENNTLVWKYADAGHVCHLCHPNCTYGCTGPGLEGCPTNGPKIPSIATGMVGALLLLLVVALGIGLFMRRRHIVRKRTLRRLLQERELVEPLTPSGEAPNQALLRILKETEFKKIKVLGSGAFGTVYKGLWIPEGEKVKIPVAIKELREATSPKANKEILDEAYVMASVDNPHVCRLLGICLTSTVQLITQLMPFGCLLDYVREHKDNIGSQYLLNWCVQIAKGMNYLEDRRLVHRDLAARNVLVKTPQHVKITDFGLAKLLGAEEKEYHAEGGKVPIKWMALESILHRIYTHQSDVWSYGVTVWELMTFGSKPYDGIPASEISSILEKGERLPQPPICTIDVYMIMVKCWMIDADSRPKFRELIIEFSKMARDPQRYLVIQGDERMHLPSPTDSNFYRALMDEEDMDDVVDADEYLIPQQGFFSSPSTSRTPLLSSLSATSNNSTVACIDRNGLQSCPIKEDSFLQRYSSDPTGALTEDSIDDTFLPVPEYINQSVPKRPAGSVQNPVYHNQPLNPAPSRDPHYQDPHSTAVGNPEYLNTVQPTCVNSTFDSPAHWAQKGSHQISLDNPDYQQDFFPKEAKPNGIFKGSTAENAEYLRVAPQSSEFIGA
Test [3] concerns the target Epidermal growth factor receptor (Homo sapiens, UniProt P00533, C797S/L858R/T790M). In words: Inhibition of EGFR L858R/T790M/C797S mutant (unknown origin) by mobility shift assay.
The target in test [4] is Epidermal growth factor receptor (Homo sapiens, UniProt P00533, L858R/T790M). As to the kind of experiment: Inhibition of EGFR L858R/T790M mutant (unknown origin) by mobility shift assay.
Epidermal growth factor receptor (Homo sapiens, UniProt P00533, L858R/T790M), sequence (P00533 25-1210 T790M/L858R limits assumed): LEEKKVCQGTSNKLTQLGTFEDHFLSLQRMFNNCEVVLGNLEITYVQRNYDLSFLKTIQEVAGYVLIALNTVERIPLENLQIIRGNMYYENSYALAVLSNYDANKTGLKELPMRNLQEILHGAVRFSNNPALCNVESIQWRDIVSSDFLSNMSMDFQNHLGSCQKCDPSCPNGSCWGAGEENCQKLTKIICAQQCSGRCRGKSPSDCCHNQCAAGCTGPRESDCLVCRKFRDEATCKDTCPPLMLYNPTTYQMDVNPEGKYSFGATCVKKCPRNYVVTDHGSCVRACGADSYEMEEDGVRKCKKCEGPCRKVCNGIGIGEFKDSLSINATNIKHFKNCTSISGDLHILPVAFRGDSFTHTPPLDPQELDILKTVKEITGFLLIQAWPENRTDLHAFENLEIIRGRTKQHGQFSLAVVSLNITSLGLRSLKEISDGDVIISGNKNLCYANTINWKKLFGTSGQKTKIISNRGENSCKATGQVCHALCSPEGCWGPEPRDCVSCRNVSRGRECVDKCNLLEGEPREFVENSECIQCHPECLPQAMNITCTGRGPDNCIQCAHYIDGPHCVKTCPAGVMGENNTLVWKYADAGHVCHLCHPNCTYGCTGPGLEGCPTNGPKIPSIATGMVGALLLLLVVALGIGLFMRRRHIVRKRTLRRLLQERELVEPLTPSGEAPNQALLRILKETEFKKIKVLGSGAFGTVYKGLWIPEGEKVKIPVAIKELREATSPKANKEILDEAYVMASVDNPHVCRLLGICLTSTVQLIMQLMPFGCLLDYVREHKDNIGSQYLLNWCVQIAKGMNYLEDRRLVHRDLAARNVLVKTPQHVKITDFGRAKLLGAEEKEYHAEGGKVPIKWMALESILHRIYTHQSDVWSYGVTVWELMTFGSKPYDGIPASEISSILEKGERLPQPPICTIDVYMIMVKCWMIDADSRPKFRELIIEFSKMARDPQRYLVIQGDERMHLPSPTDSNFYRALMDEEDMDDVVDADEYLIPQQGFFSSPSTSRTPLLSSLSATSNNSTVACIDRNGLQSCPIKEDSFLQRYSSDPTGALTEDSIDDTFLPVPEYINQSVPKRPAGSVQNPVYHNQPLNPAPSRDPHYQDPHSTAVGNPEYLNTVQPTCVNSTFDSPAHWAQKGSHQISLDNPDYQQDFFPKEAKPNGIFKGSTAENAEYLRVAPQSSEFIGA
The test system of test [5] is Epidermal growth factor receptor (Homo sapiens), P00533 [L858R,T790M,C797S]. The settings on record: dose 300.0 nM.
Epidermal growth factor receptor (Homo sapiens), P00533 [L858R,T790M,C797S], sequence (P00533 whole entry T790M/C797S/L858R): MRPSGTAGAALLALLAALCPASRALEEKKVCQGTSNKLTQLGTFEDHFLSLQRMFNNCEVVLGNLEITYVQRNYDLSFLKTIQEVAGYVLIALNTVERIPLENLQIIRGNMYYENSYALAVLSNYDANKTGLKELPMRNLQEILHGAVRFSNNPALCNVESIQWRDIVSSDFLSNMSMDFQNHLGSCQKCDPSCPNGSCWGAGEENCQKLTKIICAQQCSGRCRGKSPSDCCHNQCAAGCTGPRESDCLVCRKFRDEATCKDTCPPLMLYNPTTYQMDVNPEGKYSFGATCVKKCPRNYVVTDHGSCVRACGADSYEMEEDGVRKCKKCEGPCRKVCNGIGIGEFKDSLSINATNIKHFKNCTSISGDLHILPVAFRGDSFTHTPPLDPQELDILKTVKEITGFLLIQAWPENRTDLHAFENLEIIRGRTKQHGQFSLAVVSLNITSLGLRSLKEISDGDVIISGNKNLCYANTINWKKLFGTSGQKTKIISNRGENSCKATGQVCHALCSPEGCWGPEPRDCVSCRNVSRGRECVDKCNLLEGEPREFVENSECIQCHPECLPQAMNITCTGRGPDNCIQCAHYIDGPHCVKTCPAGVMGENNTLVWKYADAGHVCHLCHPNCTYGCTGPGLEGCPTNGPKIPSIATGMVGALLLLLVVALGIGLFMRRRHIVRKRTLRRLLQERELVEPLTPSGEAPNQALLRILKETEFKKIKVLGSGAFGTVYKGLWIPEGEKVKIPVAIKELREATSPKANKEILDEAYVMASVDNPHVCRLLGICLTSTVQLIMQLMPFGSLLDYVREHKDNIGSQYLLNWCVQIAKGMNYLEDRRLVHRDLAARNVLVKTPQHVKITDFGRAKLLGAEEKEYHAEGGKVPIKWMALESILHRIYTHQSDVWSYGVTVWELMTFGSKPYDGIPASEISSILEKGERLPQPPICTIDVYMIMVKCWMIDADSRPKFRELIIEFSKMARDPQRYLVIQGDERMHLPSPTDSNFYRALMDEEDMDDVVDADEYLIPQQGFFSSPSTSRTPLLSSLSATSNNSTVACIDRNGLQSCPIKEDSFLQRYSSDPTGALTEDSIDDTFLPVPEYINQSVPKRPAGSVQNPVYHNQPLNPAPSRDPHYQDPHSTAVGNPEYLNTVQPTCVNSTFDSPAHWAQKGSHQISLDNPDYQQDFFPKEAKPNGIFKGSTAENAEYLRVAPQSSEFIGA

Our source for the IC50 and inhibition values is ChEMBL document CHEMBL5137051 (Eur J Med Chem, 2022).

Epidermal growth factor receptor (Homo sapiens, UniProt P00533, C797S/L858R/T790M), sequence (P00533 25-1210 T790M/C797S/L858R limits assumed): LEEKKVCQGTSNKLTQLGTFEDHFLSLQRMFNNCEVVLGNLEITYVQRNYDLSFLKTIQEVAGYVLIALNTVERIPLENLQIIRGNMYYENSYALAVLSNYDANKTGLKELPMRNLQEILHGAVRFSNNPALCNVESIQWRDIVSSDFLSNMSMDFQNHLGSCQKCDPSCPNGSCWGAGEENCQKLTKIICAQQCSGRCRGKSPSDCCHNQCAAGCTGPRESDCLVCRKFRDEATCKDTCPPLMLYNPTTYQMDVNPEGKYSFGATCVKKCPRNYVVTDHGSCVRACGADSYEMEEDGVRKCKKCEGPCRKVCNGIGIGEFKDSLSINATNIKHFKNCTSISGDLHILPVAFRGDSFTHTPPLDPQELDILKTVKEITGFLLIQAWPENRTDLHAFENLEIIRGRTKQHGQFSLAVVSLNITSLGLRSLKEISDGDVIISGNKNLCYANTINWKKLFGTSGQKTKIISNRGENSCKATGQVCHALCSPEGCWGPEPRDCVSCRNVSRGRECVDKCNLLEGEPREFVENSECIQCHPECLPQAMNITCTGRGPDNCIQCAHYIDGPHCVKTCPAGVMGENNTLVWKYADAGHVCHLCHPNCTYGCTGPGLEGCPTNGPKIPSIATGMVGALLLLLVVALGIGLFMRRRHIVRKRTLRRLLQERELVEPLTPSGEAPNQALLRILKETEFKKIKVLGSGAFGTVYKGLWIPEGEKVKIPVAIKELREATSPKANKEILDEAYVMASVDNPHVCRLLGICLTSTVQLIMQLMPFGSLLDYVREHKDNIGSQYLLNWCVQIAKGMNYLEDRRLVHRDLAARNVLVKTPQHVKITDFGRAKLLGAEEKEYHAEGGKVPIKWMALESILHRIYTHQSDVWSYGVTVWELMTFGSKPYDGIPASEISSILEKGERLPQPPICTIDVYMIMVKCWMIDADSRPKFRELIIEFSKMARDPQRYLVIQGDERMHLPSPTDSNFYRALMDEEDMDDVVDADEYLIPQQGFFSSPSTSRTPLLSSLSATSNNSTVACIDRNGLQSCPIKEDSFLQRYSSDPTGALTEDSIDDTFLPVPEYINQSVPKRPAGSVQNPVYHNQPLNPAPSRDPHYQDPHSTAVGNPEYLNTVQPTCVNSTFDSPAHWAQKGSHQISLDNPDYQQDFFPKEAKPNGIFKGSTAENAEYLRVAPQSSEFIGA

In the case of `COc1ccc(C(=O)Nc2cc(Nc3nccc(-c4cn(C)c5ccccc45)n3)c(OC)cc2N(C)CCN(C)C)nc1`, the IC50 in the test with NCI-H1975 is 4.23 µM; in test [1], greater than 1000 nM; in the test with A549, 5.23 µM.
For `C=CC(=O)Nc1cc(Nc2nccc(-c3cn(C)c4ccccc34)n2)c(OC)cc1N(C)CCN(C)C` [OSIMERTINIB], in that order: […], greater than 1000 nM and 1.87 µM.
`COc1cc(N(C)CCN(C)C)c(NC(=O)c2ccncc2)cc1Nc1nccc(-c2cn(C)c3ccccc23)n1`: the IC50 in test [2] was greater than 500 nM; in test [3], greater than 500 nM; in the test with NCI-H1975, 6.86 µM; in test [1] it was greater than 1000 nM; in test [4] it was 391 nM; in the test with A549 it was 10.4 µM. For the same compound, the inhibition in test [5] amounted to 24%.
For the compound `COc1ccc(C(=O)Nc2cc(Nc3nccc(-c4cn(C)c5ccccc45)n3)c(OC)cc2F)nc1`, the half-inhibitory concentration (IC50) is 16.8 µM in the test with NCI-H1975 and 8.2 µM in the test on A549. The inhibition in test [5] was determined as 1.5%.
As for `COc1cc(N(C)CCN(C)C)c(NC(=O)c2cccnc2)cc1Nc1nccc(-c2cn(C)c3ccccc23)n1`, the half-maximal inhibitory concentration (IC50) in test [2] is greater than 500 nM; in test [3] it was greater than 500 nM; in the test on NCI-H1975, 1.75 µM; in test [1], greater than 1000 nM; in test [4], 360 nM; with A549 it was 1.6 µM. In test [5], the inhibition was 41.6%.
Consider `COc1cc(N(C)C)c(NC(=O)c2ccncn2)cc1Nc1nccc(-c2cn(C)c3ccccc23)n1`, for which the IC50 in the test on NCI-H1975 amounted to 1.25 µM; in the test with A549, 5.16 µM. Further, in test [5], the inhibition turned out to be 8.8%.
With `COc1cc(F)c(NC(=O)c2ccnc(Cl)c2)cc1Nc1nccc(-c2cn(C)c3ccccc23)n1`, the results for the IC50 in the test with NCI-H1975 and in the test on A549 were 4.33 µM and 6.89 µM, respectively. Also, the inhibition in test [5] was found to be 9.6%.
Regarding `COc1cc(F)c(NC(=O)c2ccnc(O)c2)cc1Nc1nccc(-c2cn(C)c3ccccc23)n1`, the figures for the IC50 in the test with NCI-H1975 and in the test on A549 were 5.92 µM and 11.7 µM, respectively. In test [5], the inhibition stood at 10.6%.
On to `COc1cc(N(C)C)c(NC(=O)c2ncccn2)cc1Nc1nccc(-c2cn(C)c3ccccc23)n1`, for which the IC50 in the test on NCI-H1975 came to 5.4 µM; in the test on A549 it was 8.64 µM. In test [5], the inhibition was found to be 7.4%.
As for `COc1cc(F)c(NC(=O)c2nccn2C)cc1Nc1nccc(-c2cn(C)c3ccccc23)n1`, the IC50 stood at 10.6 µM with NCI-H1975 and 5.14 µM in the test with A549. The inhibition in test [5] came out at 7.7%.
On to `COc1ccc(C(=O)Nc2cc(Nc3nccc(-c4cn(C)c5ccccc45)n3)c(OC)cc2N(C)C)nc1`, for which the IC50 with NCI-H1975 was determined as 2.13 µM; in the test with A549, 5.15 µM. Further, the inhibition in test [5] is 1.2%.
The matching figures for `COc1cc(F)c(NC(=O)c2ccncc2OC)cc1Nc1nccc(-c2cn(C)c3ccccc23)n1`: 4.12 µM, 3.43 µM and 2.2%.
The matching figures for `COc1cc(N(C)C)c(NC(=O)c2ccncc2)cc1Nc1nccc(-c2cn(C)c3ccccc23)n1`: 1.47 µM, 9 µM and 18.1%.
Consider `COc1cc(N(C)CCN(C)C)c(NC(=O)c2ccnc(Cl)c2)cc1Nc1nccc(-c2cn(C)c3ccccc23)n1`, for which the 50% inhibitory concentration (IC50) is greater than 500 nM in test [2]; 420 nM in test [3]; 2.05 µM with NCI-H1975; greater than 1000 nM in test [1]; greater than 500 nM in test [4]; 0.97 µM with A549. Also, the inhibition in test [5] amounted to 42.9%.
`COc1cc(N(C)CCN(C)C)c(NC(=O)c2ccncn2)cc1Nc1nc(-c2cn(C)c3ccccc23)c2cccnc2n1`: the IC50 in test [2] is 360 nM; in test [3], greater than 500 nM; in the test on NCI-H1975, 1.09 µM; in test [1], greater than 1000 nM; in test [4], greater than 500 nM; in the test on A549, 4.52 µM. The inhibition in test [5] came to 22.3%.
As to `COc1cc(N(C)CCN(C)C)c(NC(=O)c2ccncn2)cc1Nc1nccc(-c2cn(CCCO)c3ccccc23)n1`, the half-maximal inhibitory concentration (IC50) in test [2] is 590 nM; in test [3] it was 161 nM; in the test on NCI-H1975, 2.12 µM; in test [1], greater than 1000 nM; in test [4], 41 nM; in the test on A549 it was 2.66 µM. Also, the inhibition in test [5] amounted to 65.6%.
As for `COc1cc(N(C)C)c(NC(=O)c2nccn2C)cc1Nc1nccc(-c2cn(C)c3ccccc23)n1`, the figures for the IC50 in the test on NCI-H1975 and with A549 were 2.88 µM and 10.2 µM, respectively. The inhibition in test [5] is 12.1%.
For `COc1cc(F)c(NC(=O)c2ccncc2)cc1Nc1nccc(-c2cn(C)c3ccccc23)n1`, in that order: 4.37 µM, 4.2 µM and 15.5%.
With `COc1cc(N(C)CCN(C)C)c(NC(=O)c2ccnc(O)c2)cc1Nc1nccc(-c2cn(C)c3ccccc23)n1`, the half-maximal inhibitory concentration (IC50) is greater than 500 nM in test [2]; greater than 500 nM in test [3]; 12 µM in the test on NCI-H1975; greater than 1000 nM in test [1]; greater than 500 nM in test [4]; 11.2 µM with A549. For the same compound, in test [5], the inhibition was found to be 38.1%.
Take `COc1cc(N(C)C)c(NC(=O)c2ccncc2OC)cc1Nc1nccc(-c2cn(C)c3ccccc23)n1`: the figures for the IC50 in the test on NCI-H1975 and in the test on A549 were 12.1 µM and 3.03 µM, respectively. In test [5], the inhibition came out at 7.9%.
For `COc1cc(N(C)CCN(C)C)c(NC(=O)c2cnccn2)cc1Nc1nc(-c2cn(C)c3ccccc23)c2ccccc2n1`, in that order: 16.3 µM, 10.1 µM and -9.4%.
For `COc1cc(N(C)C)c(NC(=O)c2ccnc(Cl)n2)cc1Nc1nccc(-c2cn(C)c3ccccc23)n1`, in that order: 3.66 µM, 2.84 µM and -1.8%.
On to `COc1cc(N(C)CCN(C)C)c(NC(=O)c2ccncc2OC)cc1Nc1nccc(-c2cn(CCCO)c3ccccc23)n1`, for which the IC50 turned out to be 1.97 µM with NCI-H1975 and 2.39 µM in the test on A549. The inhibition in test [5] is 49.5%.
Take `COc1cc(N(C)CCN(C)C)c(NC(=O)c2nccn2C)cc1Nc1nccc(-c2cn(C)c3ccccc23)n1`: the IC50 is 3.32 µM in the test on NCI-H1975, greater than 1000 nM in test [1] and 2.55 µM in the test on A549.
As to `COc1cc(N(C)C)c(NC(=O)c2ccccn2)cc1Nc1nccc(-c2cn(C)c3ccccc23)n1`, the IC50 in the test with NCI-H1975 was 10.3 µM; in the test with A549 it was 8.29 µM. Also, the inhibition in test [5] is 10.5%.
Take `COc1cc(N(C)C)c(NC(=O)c2c[nH]cn2)cc1Nc1nccc(-c2cn(C)c3ccccc23)n1`: the IC50 was 3.12 µM in the test with NCI-H1975 and 3.56 µM in the test on A549. Further, the inhibition in test [5] was 24.7%.
The matching figures for `COc1cc(F)c(NC(=O)c2cnccn2)cc1Nc1nccc(-c2cn(C)c3ccccc23)n1`: 24.8 µM, 2.49 µM and 9.7%.
For `COc1cc(N(C)CCN(C)C)c(NC(=O)c2ccnc(Cl)c2)cc1Nc1nccc(-c2cn(CCCO)c3ccccc23)n1`, the IC50 in test [2] is 743 nM; in test [3], 137 nM; in the test on NCI-H1975, 1.82 µM; in test [1] it was greater than 1000 nM; in test [4], 42 nM; in the test with A549, 2.14 µM. The inhibition in test [5] came out at 70.1%.
As to `COc1cc(N(C)C)c(NC(=O)c2ccnc(Cl)c2)cc1Nc1nccc(-c2cn(C)c3ccccc23)n1`, the concentration for half-maximal inhibition (IC50) worked out at 9.2 µM in the test on NCI-H1975 and 3.43 µM with A549. Besides, the inhibition in test [5] was 9.4%.
As to `COc1cc(N(C)CCN(C)C)c(NC(=O)c2cnccn2)cc1Nc1nccc(-c2cn(C)c3ccccc23)n1`, the IC50 in test [2] was 224 nM; in test [3], greater than 500 nM; in the test with NCI-H1975 it was 1.22 µM; in test [1], greater than 1000 nM; in test [4], 17 nM; with A549, 4.33 µM. In addition, the inhibition in test [5] was found to be 38.2%.
For the compound `COc1cc(N(C)CCN(C)C)c(NC(=O)c2nccn2C)cc1Nc1nc(-c2cn(C)c3ccccc23)c2cccnc2n1`, the IC50 in test [2] is greater than 500 nM; in test [3] it was greater than 500 nM; with NCI-H1975 it was 4.2 µM; in test [1], greater than 1000 nM; in test [4], 420 nM; in the test with A549 it was 5.64 µM. The inhibition in test [5] came out at 19.4%.
As to `COc1cc(F)c(NC(=O)c2ncccn2)cc1Nc1nccc(-c2cn(C)c3ccccc23)n1`, the IC50 in the test with NCI-H1975 was 13.5 µM; in the test on A549, 8.4 µM. Also, the inhibition in test [5] is 9.6%.
Regarding `COc1cc(N(C)CCN(C)C)c(NC(=O)c2ccncc2OC)cc1Nc1nccc(-c2cn(C)c3ccccc23)n1`, the IC50 in test [2] is greater than 500 nM; in test [3], greater than 500 nM; in the test on NCI-H1975, 1.01 µM; in test [1], greater than 1000 nM; in test [4], 100 nM; in the test with A549 it was 2.69 µM. In addition, the inhibition in test [5] is 28.5%.
For the compound `COc1cc(F)c(NC(=O)c2ccccn2)cc1Nc1nccc(-c2cn(C)c3ccccc23)n1`, the figures for the IC50 in the test on NCI-H1975 and in the test with A549 were 16.5 µM and 7.98 µM, respectively. The inhibition in test [5] was -1.4%.
For `COc1cc(N(C)CCN(C)C)c(NC(=O)c2ncccn2)cc1Nc1nccc(-c2cn(C)c3ccccc23)n1`, the IC50 in test [2] is 146 nM; in test [3], greater than 500 nM; with NCI-H1975 it was 0.65 µM; in test [1] it was greater than 1000 nM; in test [4], 30 nM; in the test on A549 it was 2.49 µM. Besides, in test [5], the inhibition amounted to 38.2%.
Consider `COc1ccc(C(=O)Nc2cc(Nc3nc(-c4cn(C)c5ccccc45)c4cccnc4n3)c(OC)cc2N(C)CCN(C)C)nc1`, for which the IC50 was 1.16 µM with NCI-H1975 and 4.23 µM with A549. For the same compound, the inhibition in test [5] was 12.8%.

Usually IC50 stands for the concentration needed to halve the response being measured. What is called inhibition is the drop in the measured response relative to a control, in per cent.
